According to US20240209047A1, “GROWTH FACTOR CONJUGATES” (priority 2021, published 2024):
Entries after “also recorded” stand apart in the source; their conditions may differ.

Assays:
[1] = system: full thickness splinted wounds (8 mm diameter) of db/db mice; test: Wound closure of full thickness splinted dermal wounds in diabetic mice; type: in vivo, mouse; conditions: for percentage wound closure: treated 6 times over 11 days (every other day)
From the text: In vivo studies: All procedures adhered to the recommendations in the Guide for the Care and Use of Laboratory Animals of the National Institutes of Health. The protocol for this experiment was approved by the Institutional Animal Care and Use Committee of University of California, Davis.
Creating of full thickness splinted dermal wounds: Genetically diabetic 12 week old male mice (db/db; BKS.Cg-m+/+Leprdb; Jackson Laboratories, Bar Harbor, ME) were used for this study. […] 8 mm Full thickness wounds were created on the dorsal surface of db/db mice as described previously (Park S. A. et al., 2014).
Mice in the sEGF group received native EGF (300 ng) dissolved in PEG immediately after wounding and twice daily until day 10. The NoTx group remained without any treatment through the study period. All wounds were dressed using a sterile coverslip and a semi-occlusive bandage.
(§1) Clinical and histological analyses: All analyses were performed as described previously (Park S. A. et al., 2014). Briefly, wounds were clinically evaluated and imaged daily, and the wound area was measured using image analysis software, and percentage wound closure was calculated. Mice were humanely euthanized on day 11 and the entire wound bed was harvested. Histologic analyses was performed by a board-certified veterinary pathologist.

[2] = Persistence of EGF in the wound bed by ELISA specific to anti-human EGF; type: in vivo, mouse; conditions: for persistence of EGF in the wound bed: mass per mm^2 of tissue, in vivo
Method: Detection of crosslinked EGF on dermal wounds: Persistence of CxEGF, qEGF and soluble EGF in the wound bed was determined using ELISA specific to anti-human EGF. Mice were euthanized at each time point and the wound bed was harvested. The tissue was digested using 7.5 Units/ml collagenase in the presence of 1 μM dithiothreitol (DTT) over 2 h at 37° C. This was centrifuged at 14000 RPM and the supernatant following which ELISA was performed. Specificity of the ELISA was verified using mouse recombinant EGF. Amount of EGF (mg) measured on the wound bed was expressed per surface area (mm^2) of the tissue.
The feasibility to tether sulfo-SMCC modified nanospheres to graft tissue was first evaluated (FIG. 9). Full thickness splinted wounds (8 mm in diameter) were created on heterozygous (db+/−;BKS.Cg-m+/+Leprdb) mouse as described above. Wound surfaces were treated with a reducing agent (tris(2-carboxyethyl)phosphine; TCEP) to break the disulfide bonds. The crosslinkers and reducing agents were used at non-toxic doses (FIG. 10). […] Immediately after the treatment, wounds were covered with a semi-occlusive dressing to minimize scab formation (Park Shin Ae et al., 2014). Wound beds were harvested at various time points and the presence of EGF attached on the surfaces was determined by ELISA (FIG. 3B). […] A gradual decrease in the amount of surface immobilized EGF was observed after 2 days. […] We note that the number of disulfide bonds available for anchoring CxEGF is difficult to ascertain in vivo and may thus contribute to the partial surface coverage. Secondary validation of the linkage chemistry was done using an in vitro model of the surface chemistry using (3 mercaptopropyl)trimethoxysilane (MPTS) or trimethoxy(propyl)silane (TPS) and maleimide by a reduction in contact angle and increased thickness of deposition (FIG. 3D). The mercapto group on the MPTS simulated sulfhydryl groups present on a native wound bed, and TPS was devoid of any functional group simulating a passivated wound surface.

HaCaT cells [3] = test: HaCaT proliferation (MTT) on surfaces with covalently immobilized EGF; type: cell-based, human
Method: Human 433 immortalized kertinocytes (HaCaT) cells were cultured in growth medium containing 1% (v/v) serum (FBS). The proliferation rates are expressed as % control when cultured on surfaces [trimethoxy(propyl)silane (TPS) or 3-mercaptopropyl trimethoxysilane (3-MPTS)] immobilized with EGF. As positive control, cells were also cultured in the growth medium containing 10% 437 (v/v) FBS. ***p<0.001, one-way ANOVA followed by Dunnett's multiple comparison test compared with control cultures (cells cultured in media with 1% serum).
In vitro surface modification: An in vitro model of the wound surface was generated by silanizing glass coverslips with either trimethoxy(propyl)silane (TPS) or 3-mercaptopropyl trimethoxysilane (3-MPTS). Disulfide bonds (if any) on the surface of the silanated coverslips were reduced using 10 μM tris(2-carboxyethyl)phosphine (TCEP) for 10 min to generate an abundance of —SH bonds. These exposed —SH groups were used to covalently immobilize EGF.
Measuring bioactivity in vitro: Human immortalized kertinocytes (HaCaT cells) were plated on unmodified glass surfaces, or on surfaces covalently immobilized with EGF, or on surfaced with quenched EGF, in Dulbeccos' modified Eagle's medium (DMEM) supplemented with 1% fetal bovine serum and proliferation was determined after 5 days using the MTT assay (Raghunathan et al., 2013). […]

[4] = system: wound bed from a db/db mouse; test: Histopathological evaluation of wound bed of db/db mice after 11 days; type: in vivo
From the text: FIG. 5A-C. Histopathological evaluations of a wound bed from a db/db mouse treated with/without crosslinked EGF over 11 days upon wounding. Scale Bars=500 μm. (A) Measurement of epithelial gap (blue line) and reepithelialization (red line). The epithelial gap was defined as the distance between the advancing edges of keratinocyte migration measured in millimeters. Length of reepithelialization was defined as the length of the layer of proliferating keratinocytes covering the wound area. This value was obtained by measuring s the distance between the free edge of the keratinocyte layer and the base where the cells were still associated with native, non-affected dermal tissue. The final value was the sum of distance in millimeters of both sides. H&E staining. Graphs indicate the mean f standard deviation of epithelial gap/re-epithelialized measure on surface wounds after 11 days with or without treatments. (B) Measurement of the fibrovascular dermal proliferation in the wound bed. Using picrosirius red stain under polarized light the bright collagen fibers of the wound bed are highlighted and automatically measured by the software. The final data is expressed as a percentage of outlined wound area comprised of collagen. Graphs indicate the mean f standard deviation of % collagen measured in surface wounds after 11 days with or without treatments. […] The inflammatory response was assessed using a semi-quantitative scoring system ranging from 0 to 4 where 0 indicates no inflammation, 1 indicates 0-25% of the wound area affected, 2 indicates 25-50% of the wound area affected, 3 indicates 50-75% of the wound area affected, and 4 indicates 75% of the wound area affected. H&E staining. Graphs indicate the mean±standard deviation of inflammation score. *p<0.05 compared with qEGF-6x, #p<0.05 compared with NoTx (t-test/Mann-Whitney rank sum test).
FIG. 11. Percentage distribution of inflammatory cells in wound bed of diabetic mice at the end of 11 days. […] Results are mean f standard deviation of the ratio of positive cells to total number of cells in the wound bed.
as §1

deep-partial burn wounds = conditions: cited from earlier work
HaCaT cells [5] = test: HaCaT proliferation with soluble EGF; type: cell-based, human; conditions: 1% FBS, 0-80 ng/ml soluble EGF
Method: FIG. 8. In vitro proliferation rates of spontaneously immortalized human keratinocytes (HaCaT cells), cultured in growth medium containing 1% (v/v) serum (FBS), treated with 0-80 ng/ml soluble EGF. Results are mean f standard deviation, ***p<0.001 (ANOVA followed by Dunnett's multiple comparison test) compared with control cultures.
EGF is a key growth factor involved in triggering wound re-epithelialization, one of the critical early events in wound closure, whose prolonged exposure is required for eliciting a cellular response (Bennett N. T. and Schultz G. S., 1993, Bennett N. T. and Schultz G. S., 1993, 171 Gipson and Inatomi, 1995, Jost et al., 2000). […] A full thickness splinted wound (8 mm in diameter) was created on each heterozygous (db+/−; BKS.Cg-m+/+ Leprdb) mouse as described previously (Park Shin Ae et al., 2014). […] Functional bioactivity of EGF was determined in vitro using spontaneously transformed keratinocytes (HaCaT cell line) from histologically normal skin (FIG. 8). As a possible contributor to the lack of significant positive effect, we observed a rapid loss of recombinant human EGF from the surface of wounds within 1 h of topical administration (FIG. 2B). […]

[6] = 6x, every other day over 11 days
[7] = 30 ng crosslinked onto TCEP treated wound surface
[8] = ratio of positive cells to total cells, after 11 days

## CxEGF: Human recombinant EGF conjugated with sulfo-SMCC, covalently crosslinked onto TCEP-reduced wound surface
[1]; 1x, immobilization only once immediately after wounding
  wound closure rate (reduction of wound radii): no significant effects on wound closure rate
[1]; 3x, every 4 days
  wound closure rate (decrease in wound radius per day): significantly higher wound closure rate
[1]; [6]
  wound closure rate (decrease in wound radius per day): significantly higher wound closure rate
[1]; db/db mice
  percentage wound closure: significant acceleration of wound closure; also recorded: significantly improved wound healing
[2]; [7]
  apparent surface coverage: 2 pg/mm^2
  sustained surface immobilization of the growth factor: 2 days
[2]; ELISA
  persistence of EGF in the wound bed: increases persistence of EGF on the wound surface
[2]; equivalent of the pg/mm^2 value
  apparent surface coverage (equivalent): 1.99×10^8 molecules/mm^2
[2]; theoretical monolayer 213.6 pg/mm^2
  surface coverage as fraction of a theoretical monolayer of EGF: 1/100
HaCaT cells [3]; HaCaT, 1% FBS, TPS or 3-MPTS surfaces immobilized with EGF
  proliferation rate (% control): strongly promotes proliferation
HaCaT cells [3]; immobilized on MPTS or TPS coated glass, MTT, after 3 days of treatment
  increase in cell proliferation: over 2 fold
[4]; 6x, day 11, H&E
  inflammation (semi-quantitative score 0 to 4): reduction in inflammation
[4]; 6x, day 11, H&E, versus qEGF, no treatment or soluble EGF
  epithelial gap: dramatic decreases in epithelial gap
[4]; 6x, day 11, H&E, listed as Cross linked EGF
  inflammation (semi-quantitative score 0 to 4): elicited less inflammation
[4]; 6x, day 11, picrosirius red
  collagen content: comparable collagen content
[4]; [8]
  F-480 positive macrophages in wound bed: No statistically significant differences
  GR1 positive granulocytes in wound bed: No statistically significant differences

## aFGF: topical recombinant human acidic fibroblast growth factor
deep-partial burn wounds; deep-partial burn wounds, versus placebo
  fully healed rate: 53.85%
deep-partial burn wounds; placebo 18.92±0.49, p=0.035
  mean healed time of the burn wounds: 17.23±0.53

## qEGF: s-SMCC conjugated EGF with its maleimide group quenched with β-mercaptoethanol (NSDSECPLSHDGYCLHDGVCMYIEALDKYACNCVVGYIGERCQYRDLKWWELR; Epidermal growth factor sulfo-SMCC, maleimide quenched with β-mercaptoethanol; UniProt P01133 971-1023, looked up) [reference compound]
[1]; [6]
  wound closure rate (decrease in wound radius per day): ineffective in altering wound healing rates
[1]; db/db mice
  percentage wound closure: NoTx group had a significantly higher percentage wound closure compared to the qEGF group

## sEGF: Human recombinant EGF (ProspecBio) dissolved in 5% (w/v) polyethylene glycol, applied topically
[1]; soluble EGF 300 ng topically twice daily, over 11 days, db/db mice
  percentage wound closure / epithelial closure: did not significantly alter wound healing or epithelial closure; also recorded: did not promote epithelial closure
[2]; ELISA
  persistence of EGF in the wound bed: rapidly removed from wound surface
[2]; topical administration, wound surface, ELISA
  loss of recombinant human EGF from the surface of wounds after topical administration: ≤ 1 h
HaCaT cells [5]
  in vitro proliferation rate: increased cell proliferation
